The values that follow come from patent US20200207782A1, “CHEMICALLY ACTIVATED WATER-SOLUBLE PRODRUG” (SUMITOMO DAINIPPON PHARMA CO., LTD, priority 2017, published 2020).

≈ marks a conversion by molar mass, not a printed value. Where “and” joins values, the source holds several entries; their conditions need not be identical. Equal entries are not always repeated. Structures can show the parent of a compound that is named as a salt.

Data set [1] in a line: Evaluation of conversion rate to active form in CD1 mouse plasma. The data set is classed as in vitro ADME. As to conditions: CD1, mouse, 10 umol/L. The procedure:
(§1) The ratio of decrease of a test compound and the conversion ratio to a corresponding active form (2-acetylthieno[3,2-f][1]benzofuran-4,8-dione) in human plasma and CD1 mouse plasma were measured for Example 1.
(§2) The test compounds were incubated at 37° C. at a concentration of 10 umol/L in human plasma (cat. no. 12250210, Cosmo Bio) and CD1 mouse plasma (cat. no. AP3054, KAC) and retrieved for a given time (0, 5, 10, 30, 60, and 120 minutes) and deproteinized, then analyzed by LC-MS. Acetonitrile comprising each of 10% quantity of 1 mol/L hydrochloric acid, 1% quantity of 46% citric acid, and phenytoin as an internal standard was used for deproteinization.
(§3) LC-MS measurement conditions were the following.
(§4) The yield of the Examples compounds and active form 2-acetylthieno[3,2-f][1]benzofuran-4,8-dione is calculated with each of the peak area of the Example compounds at 0 minutes and the peak area upon dissolution of 2-acetylthieno[3,2-f][1]benzofuran-4,8-dione at 100 umol/L as 100%. The yield is denoted in terms of %.
(§5) In the same manner as Example 1, the conversion ratio to an active form was measured for each of the various test compounds in human plasma and CD1 mouse plasma, with incubation time as 120 minutes. It was confirmed that the series of compounds of the invention was converted to an active form with a small interspecies difference in human plasma and CD1 mouse plasma.
(§6) The yield of the active forms is calculated with the each peak area upon dissolution of the generated active form at 100 umol/L as 100%. The yield is denoted in terms of %.

Data set [2] can be described thus: Evaluation of conversion rate to active form in human plasma. The following applies: human, 10 umol/L. The class given is in vitro ADME. How it is done:
as §1, §2, §3, §4, §5, §6

The nature of a further data set: physchem. The following applies: thermodynamic from solid; for solubility at 24 h: pH 2, aqueous buffer.
The conditions of data set [3]: pH 2.
Protocol: (§7) The solubility of the water-soluble prodrugs described in the Examples and the Reference Examples was measured. […] The filtrate was measured by HPLC.
Data set [4] is described as follows: Solution stability test (residual ratio and generation of active form in buffers of pH 2.0 to 9.0). The class given is physicochemical. As to conditions: for Degradation behaviour in buffers (in words): pH 2.0 to 9.0; for Residual ratio / Rate of generation of active form after 24 hours in buffer with pH of 7.4: 25° C.; for Residual ratio: 25 umol/L; for Rate of generation of active form after 24 hours in buffer with pH of 7.4: pH 7.4 buffer. More on the design: Rate of generation of active form after 24 hours in buffer with pH of 7.4: tested at 25 µM. The procedure: The test compounds were incubated at 25° C. at a concentration of 25 umol/L in a buffer prepared to have a pH of 2.0, 3.0, 5.0, 7.4, and 9.0. The compounds were measured by HPLC after 0, 3, 6, 9, 12, and 24 hours.
The buffers used at each pH are the following. • pH 2.0: 50 mmol/L glycine buffer • pH 3.0: 50 mmol/L citrate buffer • pH 5.0: 50 mmol/L citrate buffer • pH 7.4: 50 mmol/L phosphate buffer • pH 9.0: 50 mmol/L glycine buffer
The measurement conditions for HPLC are the following.
The yield of the Example and Reference Example compounds and active forms is calculated with each of the peak area of the Example and Reference Example compounds at 0 minutes and the peak area upon dissolution of the corresponding active form at 100 umol/L as 100%. The yield is denoted in terms of %

Protocol for physchem: as §7

For `CC(=O)c1cc2c(o1)C(=O)c1sccc1C2=O` [2-acetylthieno[3,2-f][1]benzofuran-4,8-dione, reference compound], the “Measurement value % of active form (conversion ratio to active form)” value was 0.0% in data set [1] (0 min); 21.1% in data set [1] (5 min); 36.7% in data set [1] (10 min); 70.8% in data set [1] (30 min); 73.8% in data set [1] (60 min); 71.4% in data set [1] (120 min). The “Measurement value % of active form (conversion ratio to active form)” value worked out at 0.0% in data set [2] (0 min); 36.4% in data set [2] (5 min); 51.6% in data set [2] (10 min); 83.4% in data set [2] (30 min); 89.7% in data set [2] (60 min); 91.3% in data set [2] (120 min). Besides, the solubility (in general, the concentration that dissolves in the medium under given conditions) at 24 h in “physchem” (50 mmol/L glycine buffer) was 4 µg/mL (≈ 16.2 µM).

With `C[C@H]1COC2=C1C(=O)C(=O)c1c2ccc2c1CCCC2(C)C` [(1R)-1,6,6-trimethyl-1,2,6,7,8,9-hexahydrophenanthro[1,2-b]furan-10,11-dione], the Solubility in buffer result in data set [3] is recorded as “Below”.

As for `C[C@H]1COc2c1c(OC(=O)NCCCNCC(=O)O)c(OC(=O)NCCCNCC(=O)O)c1c3c(ccc21)C(C)(C)CCC3` [Example 13, 2,2′-{[(1R)-1,6,6-trimethyl-1,2,6,7,8,9-hexahydrophenanthro[1,2-b]furan-10,11-diyl]bis(oxycarbonylazanediylpropane-3,1-diylazanediyl)}diacetic acid dihydrochloride], in data set [4], the “Degradation behaviour in buffers (in words)” value is “pH dependent and chemical degradation progressed”. The Residual ratio is given as 100% in data set [4] (pH3.0 buffer, 0 hr); 100% in data set [4] (pH3.0 buffer, 3 hr); 100% in data set [4] (pH3.0 buffer, 6 hr); 99.8% in data set [4] (pH3.0 buffer, 9 hr); 99.6% in data set [4] (pH3.0 buffer, 12 hr); 100% in data set [4] (pH3.0 buffer, 24 hr). Also, the Residual ratio in data set [4] (pH5.0 buffer, 0 hr) was 100%; in data set [4] (pH5.0 buffer, 3 hr), 99.4%; in data set [4] (pH5.0 buffer, 6 hr), 99.2%; in data set [4] (pH5.0 buffer, 9 hr) it was 99.0%; in data set [4] (pH5.0 buffer, 12 hr), 98.6%; in data set [4] (pH5.0 buffer, 24 hr), 98.4%. Further, the Residual ratio is 100% in data set [4] (pH7.4 buffer, 0 hr); 61.8% in data set [4] (pH7.4 buffer, 3 hr); 42.6% in data set [4] (pH7.4 buffer, 6 hr); 28.5% in data set [4] (pH7.4 buffer, 9 hr); 19.1% in data set [4] (pH7.4 buffer, 12 hr); 6% and 6.1% in data set [4] (pH7.4 buffer, 24 hr, dihydrochloride). For the same compound, the Residual ratio in data set [4] (pH9.0 buffer, 0 hr) turned out to be 100%; in data set [4] (pH9.0 buffer, 3 hr), 99.7%; in data set [4] (pH9.0 buffer, 6 hr), 99.4%; in data set [4] (pH9.0 buffer, 9 hr), 99.3%; in data set [4] (pH9.0 buffer, 12 hr) it was 99.1%; in data set [4] (pH9.0 buffer, 24 hr), 100%. In addition, in data set [4], the “Rate of generation of active form after 24 hours in buffer with pH of 7.4” value is given as 5%. Also, the “Stability in solution (in words)” value in data set [4] (pH of 2.0, 25° C.) is recorded as “stable”; in data set [4] (pH of 3.0, 25° C.), “stable”; in data set [4] (pH of 5.0, 25° C.), “stable”. Further, the solubility at 24 h in the data set “physchem” was above 10000 µg/mL.

As for `CC(=O)c1cc2c(O)c3c(O)cccc3c(OC(=O)NCCCN)c2o1` [Reference Example 9, 2-Acetyl-4,5-dihydroxynaphtho[2,3-b]furan-9-yl(3-aminopropyl)carbamate hydrochloride], the Residual ratio in data set [4] (pH2.0 buffer, 0 hr) amounted to 100%; in data set [4] (pH2.0 buffer, 3 hr), 96.9%; in data set [4] (pH2.0 buffer, 6 hr) it was 92.9%; in data set [4] (pH2.0 buffer, 9 hr), 85.7%; in data set [4] (pH2.0 buffer, 12 hr), 85.2%; in data set [4] (pH3.0 buffer, 0 hr) it was 101%. Moreover, the Residual ratio turned out to be 100% in data set [4] (pH3.0 buffer, 3 hr); 100% in data set [4] (pH3.0 buffer, 6 hr); 99.8% in data set [4] (pH3.0 buffer, 9 hr); 99.5% in data set [4] (pH3.0 buffer, 12 hr); 98.4% in data set [4] (pH3.0 buffer, 24 hr); 102% in data set [4] (pH5.0 buffer, 0 hr). The Residual ratio in data set [4] (pH5.0 buffer, 3 hr) is 104%; in data set [4] (pH5.0 buffer, 6 hr), 99.7%; in data set [4] (pH5.0 buffer, 9 hr), 93.8%; in data set [4] (pH5.0 buffer, 12 hr), 87.4%; in data set [4] (pH5.0 buffer, 24 hr, hydrochloride), 67% and 67.1%; in data set [4] (pH7.4 buffer, 0 hr) it was 103%. Further, the Residual ratio is 83.0% in data set [4] (pH7.4 buffer, 3 hr); 67.1% in data set [4] (pH7.4 buffer, 6 hr); 52.7% in data set [4] (pH7.4 buffer, 9 hr); 41.1% in data set [4] (pH7.4 buffer, 12 hr); 26% and 25.5% in data set [4] (pH7.4 buffer, 24 hr, hydrochloride); 75.3% in data set [4] (pH9.0 buffer, 0 hr). Moreover, the Residual ratio in data set [4] (pH9.0 buffer, 3 hr) came to 13.7%; in data set [4] (pH9.0 buffer, 6 hr, hydrochloride), 0%; in data set [4] (pH9.0 buffer, 9 hr) it was 0.0%; in data set [4] (pH9.0 buffer, 12 hr), 0.0%; in data set [4] (pH9.0 buffer, 24 hr), 0.0%. In data set [4], the “Degradation behaviour in buffers (in words)” value was “pH dependent and chemical degradation progressed”. For the same compound, the “Rate of generation of active form after 24 hours in buffer with pH of 7.4” value in data set [4] amounted to 71%. Moreover, the “Stability in solution (in words)” value in data set [4] (pH of 2.0, 25° C.) is given as “sufficient stability”; in data set [4] (pH of 3.0, 25° C.), “sufficient stability”. The solubility in the data set “physchem” (pH 3, aqueous buffer) is above 10000 µg/mL.
